{"source": "patent US6967211B2", "about": "“Remedial agent for chronic articular rheumatism” (Nippon Shinyaku Co. Ltd., priority 2002, dated 2005)", "key": {"CDF1 male mice": {"tested_on": "CDF1 male mice", "conditions": "single oral administration", "method": "7-week-old CDF1 male mice (6 mice) were used. The compound 1 was suspended in 0.5% methylcellulose and the resulting suspension was orally administered once by oral probe. The mortality rate was investigated after 2 weeks and the LD50 value was calculated by the probit method."}, "[1]": {"tested_on": "type II collagen-induced arthritis", "conditions": "for Inhibition ratio (%): arthritis score 35 days after primary sensitization", "method": "8-week-old DBA/1J male mice (7 to 10 mice) were used. 0.1 ml of an emulsion prepared by mixing a 0.1 M solution of acetic acid in physiological saline (2 mg/ml) of type II collagen derived from bovine joint cartilage and complete Freund's adjuvant at a mixing ratio of 1:1 was injected intradermally at the base of the tail in mice (primary sensitization). 21 days later, 0.1 ml of the emulsion prepared in the same manner as in case of primary sensitization was injected subcutaneously again at the back in mice (secondary sensitization). The test compound was suspended in an aqueous 0.5% methyl cellulose solution and administered orally to the mice once a day, which started from the primary or secondary sensitization. After 35 days from the primary sensitization, symptoms of arthritis was visually observed and the results were used a score of arthritis."}}, "note": "Where two headings read alike, the source gives them in different places. Marks after values point to notes of the source that are not given here."}
{"smiles": "COc1ccc(S(=O)(=O)N(C(C)=O)c2ccccc2/C=C/c2cc[n+]([O-])cc2)cc1", "note": "[Compound 1]", "values": [{"measurement": "toxicity (in words)", "setting": "CDF1 male mice; mice", "value": "very low toxicity"}, {"measurement": "LD50 value", "setting": "CDF1 male mice; mortality after 2 weeks, probit method", "value": 620.5, "unit": "mg/kg"}, {"measurement": "Inhibition ratio (%)", "setting": "[1]; 1 mg/kg orally once a day, started from the primary sensitization", "value": "−8.5", "unit": "%"}, {"measurement": "inhibitory effect on type II collagen-induced arthritis (in words)", "setting": "[1]; 5 mg/kg from the primary sensitization, or 5 and 10 mg/kg from the secondary sensitization", "value": "significant inhibitory effect"}, {"measurement": "Inhibition ratio (%)", "setting": "[1]; 5 mg/kg orally once a day, started from the primary sensitization", "value": "69.5* %"}, {"measurement": "Inhibition ratio (%)", "setting": "[1]; 5 mg/kg orally once a day, started from the secondary sensitization", "value": "69.6* %"}, {"measurement": "Inhibition ratio (%)", "setting": "[1]; 10 mg/kg orally once a day, started from the secondary sensitization", "value": "100.0** %"}]}
